Assay results as given in PMC8410435, “Evaluation of Neuraminidase Inhibitory Activity of Compounds and Extracts from Traditional Medicines by HPLC-FLD” (International Journal of Analytical Chemistry, 2021).

target: T1, neuraminidase (NA), from Sigma-Aldrich; type: biochemical; details: read-out: HPLC-FLD
T1 construct: gene nanH

Row | SMILES | IC50
1 | COC(=O)C1=CO[C@@H](O[C@@H]2O[C@H](CO)[C@@H](O)[C@H](O)[C@H]2O)[C@@H]2C(CO)=CC[C@H]12 [compound 1, Geniposide] | 970 ± 90 µM
2 | O=C(/C=C/c1ccc(O)c(O)c1)O[C@@H]1C[C@](O)(C(=O)O)C[C@@H](O)[C@H]1O [compound 3, Chlorogenic acid] | 2560 ± 60 µM
3 | O=C(/C=C/c1ccc(O)c(O)c1)O[C@H]1[C@H](O)C[C@](O)(C(=O)O)C[C@H]1O [compound 4, Cryptochlorogenin acid] | 2200 ± 10 µM
4 | O=C(/C=C/c1ccc(O)c(O)c1)O[C@@H]1[C@H](O)C[C@@](O)(C(=O)O)C[C@H]1OC(=O)/C=C/c1ccc(O)c(O)c1 [compound 6, Isochlorogenic acid C] | 1170 ± 50 µM
5 | O=C(O)[C@H]1O[C@@H](Oc2cc3oc(-c4ccccc4)cc(=O)c3c(O)c2O)[C@H](O)[C@@H](O)[C@@H]1O [compound 7, Baicalin] | 500 ± 40 µM
6 | O=c1cc(-c2ccccc2)oc2cc(O)c(O)c(O)c12 [compound 8, Baicalein] | 110 ± 10 µM
7 | CC(C)=CCOc1c2ccoc2cc2oc(=O)ccc12 [compound 9, Isoimpemtorin] | 660 ± 160 µM
8 | O=c1ccc2cc3ccoc3cc2o1 [compound 10, Psoralen] | 1000 ± 630 µM
9 | O=c1ccc2cc3ccoc3c(O)c2o1 [compound 12, Xanthotol] | 1050 ± 70 µM
10 | COc1c2ccoc2cc2oc(=O)ccc12 [compound 13, Bergapten] | 2800 ± 160 µM
11 | COc1ccc2ccc(=O)oc2c1CC=C(C)C [compound 14, Osthole] | 2140 ± 150 µM

same assay, conditions: read-out: NA enzyme-based inhibitory assays

Row | SMILES | IC50
12 | COC(=O)C1=CO[C@@H](O[C@@H]2O[C@H](CO)[C@@H](O)[C@H](O)[C@H]2O)[C@H]2[C@@H]1[C@H](O)C[C@]2(C)O [compound 2, Shanzhiside methyl ester] | 10 µM

target: T1, neuraminidase (NA), from Sigma-Aldrich; type: biochemical; details: read-out: HPLC-FLD; remark: another data set of the same source

Row | SMILES | IC50
13 | O=c1ccc2ccc3occc3c2o1 [compound 11, Angelicin] | 2550 ± 380 µM
